Data reported in paper PMC8708424, “Pharmacologically Targeting the Fibroblast Growth Factor 14 Interaction Site on the Voltage-Gated Na^+ Channel 1.6 Enables Isoform-Selective Modulation” (International Journal of Molecular Sciences, 2021).
Where a SMILES comes first, the peptide text is derived from it. The star is where a group is joined. Fmoc = O=C(OCC1c2ccccc2-c2ccccc21)*; tBu = CC(C)(C)*

Target: T1, voltage-gated Na+ channel 1.6 (Nav1.6) (Homo sapiens, UniProt Q9UQD0)
T1 construct: gene SCN8A; hNav1.6 channel stably expressed in HEK293 cells
Assay: whole-cell voltage-clamp electrophysiology in HEK-Nav1.[…] cells, peak transient INa dose-response
Type: cell-based

T1 sequence (Q9UQD0 whole entry): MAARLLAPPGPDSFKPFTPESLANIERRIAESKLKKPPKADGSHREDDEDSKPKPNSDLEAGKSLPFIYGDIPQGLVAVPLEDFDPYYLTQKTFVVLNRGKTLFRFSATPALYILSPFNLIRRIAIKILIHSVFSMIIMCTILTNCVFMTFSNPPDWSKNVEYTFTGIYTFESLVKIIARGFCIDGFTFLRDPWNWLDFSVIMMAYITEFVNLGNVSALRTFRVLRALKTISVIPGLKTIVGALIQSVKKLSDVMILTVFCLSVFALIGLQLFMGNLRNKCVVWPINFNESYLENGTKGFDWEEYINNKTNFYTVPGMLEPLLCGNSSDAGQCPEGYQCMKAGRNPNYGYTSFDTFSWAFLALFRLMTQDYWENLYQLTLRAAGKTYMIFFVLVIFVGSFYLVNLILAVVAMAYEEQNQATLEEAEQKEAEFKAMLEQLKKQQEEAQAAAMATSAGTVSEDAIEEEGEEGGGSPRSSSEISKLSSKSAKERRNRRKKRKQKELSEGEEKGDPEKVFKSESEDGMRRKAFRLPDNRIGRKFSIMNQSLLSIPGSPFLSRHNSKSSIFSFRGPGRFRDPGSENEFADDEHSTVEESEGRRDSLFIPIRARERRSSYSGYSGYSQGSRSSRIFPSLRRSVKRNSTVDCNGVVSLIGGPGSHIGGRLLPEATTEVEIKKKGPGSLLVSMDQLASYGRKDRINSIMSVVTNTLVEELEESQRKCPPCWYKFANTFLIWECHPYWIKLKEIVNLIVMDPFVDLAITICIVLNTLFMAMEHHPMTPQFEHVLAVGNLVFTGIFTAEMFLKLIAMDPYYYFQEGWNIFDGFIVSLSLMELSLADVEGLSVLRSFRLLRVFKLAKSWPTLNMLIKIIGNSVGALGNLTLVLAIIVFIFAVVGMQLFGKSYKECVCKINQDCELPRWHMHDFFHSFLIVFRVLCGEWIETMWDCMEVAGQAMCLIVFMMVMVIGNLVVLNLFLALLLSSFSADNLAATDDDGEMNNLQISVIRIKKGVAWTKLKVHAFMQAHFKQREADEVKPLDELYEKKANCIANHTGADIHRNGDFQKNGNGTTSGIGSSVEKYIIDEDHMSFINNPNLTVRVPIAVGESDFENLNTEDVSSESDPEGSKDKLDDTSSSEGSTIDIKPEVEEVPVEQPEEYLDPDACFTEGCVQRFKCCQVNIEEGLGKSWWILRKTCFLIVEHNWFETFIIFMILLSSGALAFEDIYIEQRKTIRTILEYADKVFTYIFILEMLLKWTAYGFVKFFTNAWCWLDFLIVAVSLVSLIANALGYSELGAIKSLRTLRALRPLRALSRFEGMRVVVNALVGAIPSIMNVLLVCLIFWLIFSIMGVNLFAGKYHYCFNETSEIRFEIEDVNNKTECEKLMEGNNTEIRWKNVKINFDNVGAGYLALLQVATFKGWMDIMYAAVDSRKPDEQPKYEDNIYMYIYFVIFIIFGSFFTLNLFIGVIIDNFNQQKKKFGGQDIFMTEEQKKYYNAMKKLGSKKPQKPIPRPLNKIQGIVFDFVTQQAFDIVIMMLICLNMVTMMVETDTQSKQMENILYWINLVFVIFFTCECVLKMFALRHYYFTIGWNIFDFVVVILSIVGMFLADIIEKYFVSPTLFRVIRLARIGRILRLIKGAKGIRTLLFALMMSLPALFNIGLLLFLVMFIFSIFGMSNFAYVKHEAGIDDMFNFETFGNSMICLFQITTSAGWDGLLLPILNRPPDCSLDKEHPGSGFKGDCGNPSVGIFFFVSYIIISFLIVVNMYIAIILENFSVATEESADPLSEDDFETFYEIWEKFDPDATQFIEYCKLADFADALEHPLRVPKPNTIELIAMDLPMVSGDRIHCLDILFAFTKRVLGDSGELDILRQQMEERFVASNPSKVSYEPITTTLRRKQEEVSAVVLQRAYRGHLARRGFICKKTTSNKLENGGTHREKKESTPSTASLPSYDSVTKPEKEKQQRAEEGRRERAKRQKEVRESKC

IC50: 15.1 µM
SMILES: CC(C)[C@H](NC(=O)[C@H](Cc1ccc(OC(C)(C)C)cc1)NC(=O)[C@H](Cc1ccc(OC(C)(C)C)cc1)NC(=O)OCC1c2ccccc2-c2ccccc21)C(N)=O [PW201] (Fmoc-Tyr(tBu)-Tyr(tBu)-Val-NH2)
